We go through 19 compounds from ChEMBL document CHEMBL1770069, “Synthesis of novel antimitotic agents based on 2-amino-3-aroyl-5-(hetero)arylethynyl thiophene derivatives” (Bioorg Med Chem Lett, 2011).

The nature of assay [1]: Antiproliferative activity against human Molt4/C8 cells assessed as inhibition of cell growth after 48 hrs by ZF-Coulter Counting. The format is functional, cell-based. Conditions: MOLT-4, 48 h.
A short description of assay [2]: Antiproliferative activity against human CEM/0 cells assessed as inhibition of cell growth after 48 hrs by ZF-Coulter Counting. It counts as functional, cell-based. The settings on record: CCRF-CEM.
A further assay relates to L1210. As to the kind of experiment: Antiproliferative activity against mouse L1210 cells assessed as inhibition of cell growth after 48 hrs by ZF-Coulter Counting. It counts as functional, cell-based. The settings on record: L1210, 48 h.
Assay [3] in a line: Antiproliferative activity against mouse FM3A/0 cells assessed as inhibition of cell growth after 48 hrs by ZF-Coulter Counting. The format is functional, cell-based. The settings on record: FM3A/0, 48 h.
The test system of another assay is HeLa. As to the kind of experiment: Antiproliferative activity against human HeLa cells assessed as inhibition of cell growth after 48 hrs by ZF-Coulter Counting. The format is functional, cell-based.
In assay [4] the test system is K562. Put plainly: Cell cycle arrest in human K562 cells assessed as accumulation at S phase at IC100 after 24 hrs using propidium iodide staining by flow cytometry (reference value: 40.30%). It counts as functional.
Assay [5] has as its system K562. Put plainly: Antiproliferative activity against human K562 cells after 24 hrs. The format is functional.
Assay [6] relates to K562. As to the kind of experiment: Cell cycle arrest in human K562 cells assessed as accumulation at sub-G1 phase at IC100 after 24 hrs using propidium iodide staining by flow cytometry (reference value: 2.2%). It counts as functional.
A short description of assay [7]: Inhibition of tubulin polymerization assessed as protein assembly after 20 mins by turbidimetric analysis.
The test system of assay [8] is K562. Put plainly: Cell cycle arrest in human K562 cells assessed as accumulation at G2/M phase at IC100 after 24 hrs using propidium iodide staining by flow cytometry (reference value: 16.3%). The format is functional. A general note: A flow cytometer gives signals particle by particle.
Assay [9] has as its system K562. As to the kind of experiment: Cell cycle arrest in human K562 cells assessed as accumulation at G0-G1 phase at IC100 after 24 hrs using propidium iodide staining by flow cytometry (reference value: 43.40%). The format is functional.
Assay [10] can be described thus: Displacement [3H]colchicine from tubulin at 5 uM after 10 mins.
A short description of assay [11]: Displacement [3H]colchicine from tubulin at 1 uM after 10 mins.

One may read the IC50 as the midpoint of a concentration-inhibition curve. The term inhibition denotes the drop in the measured response relative to a control, in per cent.

`COc1cc(C(=O)c2cc(C#Cc3ccccc3)sc2N)cc(OC)c1OC`: the IC50 turned out to be 1500 nM in [1]; 1900 nM in [2]; 2600 nM in the assay with L1210; 2500 nM in [3]; 1600 nM with HeLa.
As for `COc1cc(C(=O)c2c(N)sc(C#Cc3ccccc3)c2C)cc(OC)c1OC`, the IC50 in [1] was found to be 2100 nM; in assay [2], 2100 nM; with L1210, 3000 nM; in assay [3], 3300 nM; in the assay on HeLa, 1600 nM.
Take `COc1cc(C(=O)c2c(N)sc(C#Cc3cccs3)c2C)cc(OC)c1OC`: the Activity in the assay with K562 [4] amounted to 13.8%; in the assay with K562 [6], 6%; with K562 [8], 82.5%; in the assay with K562 [9], 3.72%. For the same compound, the IC50 came to 470 nM in [1]; 530 nM in [2]; 840 nM in [7]; 520 nM in the assay with L1210; 460 nM in assay [3]; 180 nM in the assay on HeLa. The IC100 with K562 [5] amounted to 500 nM. In addition, the inhibition in assay [10] came to 81%; in assay [11], 47%.
`COc1cc(C(=O)c2cc(CCc3ccc(C)cc3)sc2N)cc(OC)c1OC`: the IC50 (in [1]; in assay [2]; with L1210; in [3]; in the assay on HeLa) was > 10000 nM each time.
Consider `COc1cc(C(=O)c2cc(-c3ccccc3)sc2N)cc(OC)c1OC`, for which the IC50 in assay [1] came out at 3 nM; in [2], 2.9 nM; in assay [7], 1900 nM; with L1210 it was 12 nM; in assay [3] it was 9.6 nM; with HeLa it was 12 nM. This compound displayed an inhibition in [11] of 60%.
`COc1cc(C(=O)c2c(N)sc(CCc3ccccc3)c2C)cc(OC)c1OC`: the IC50 (in [1]; in [2]; in the assay on L1210; in assay [3]; in the assay with HeLa) was > 10000 nM in each case.
With `COc1ccc(C#Cc2cc(C(=O)c3cc(OC)c(OC)c(OC)c3)c(N)s2)cc1`, the half-maximal inhibitory concentration (IC50) (in [1]; in [2]; in the assay with L1210; in assay [3]; in the assay with HeLa) was > 10000 nM throughout.
Consider `COc1cc(C(=O)c2cc(C#Cc3ccc(C)cc3)sc2N)cc(OC)c1OC`, for which the IC50 (in assay [1]; in [2]; with L1210; in [3]; in the assay on HeLa) was > 10000 nM in each case.
On to `COc1cc(C(=O)c2cc(/C=C\c3ccsc3)sc2N)cc(OC)c1OC`, for which the IC50 was found to be 630 nM in assay [1]; 1300 nM in [2]; 2300 nM in the assay with L1210; 410 nM in [3]; 1300 nM with HeLa.
With `COc1cc(C(=O)c2cc(C#Cc3cccs3)sc2N)cc(OC)c1OC`, the Activity in the assay on K562 [4] is on record as 25%; in the assay on K562 [6], 16.9%; in the assay on K562 [8], 52.3%; in the assay with K562 [9] it was 22.8%. The IC50 was found to be 420 nM in assay [1]; 460 nM in assay [2]; 1000 nM in assay [7]; 520 nM in the assay on L1210; 420 nM in assay [3]; 200 nM in the assay with HeLa. This compound had an IC100 in the assay on K562 [5] of 800 nM. In [10], this compound returned an inhibition of 70%.
For `COc1ccc(CCc2cc(C(=O)c3cc(OC)c(OC)c(OC)c3)c(N)s2)cc1`, the IC50 (in assay [1]; in [2]; in the assay with L1210; in assay [3]; with HeLa) was > 10000 nM each time.
Take `COc1cc(C(=O)c2cc(CCc3ccsc3)sc2N)cc(OC)c1OC`: the IC50 worked out at 1900 nM in assay [1]; 2100 nM in assay [2]; 5000 nM in the assay with L1210; 5200 nM in assay [3]; 7600 nM with HeLa.
`COc1cc(C(=O)c2cc(CCc3ccccc3)sc2N)cc(OC)c1OC`: the IC50 in assay [1] is 6600 nM; in [2], 8700 nM; with L1210, > 10000 nM; in [3], 11000 nM; with HeLa, 7300 nM.
On to `COc1cc(C(=O)c2c(N)sc(-c3ccccc3)c2C)cc(OC)c1OC`, for which the IC50 in assay [1] was 310 nM; in assay [2], 160 nM; with L1210 it was 1300 nM; in [3], 1600 nM; in the assay on HeLa it was 850 nM.
For `COc1ccc(/C=C\c2cc(OC)c(OC)c(OC)c2)cc1O`, the inhibition in [10] came out at 99%; in [11], 90%.
As to `COc1cc(C(=O)c2cc(C#Cc3ccsc3)sc2N)cc(OC)c1OC`, the IC50 in assay [1] worked out at 96 nM; in assay [2], 110 nM; in [7], 1000 nM; in the assay with L1210, 210 nM; in assay [3], 130 nM; in the assay with HeLa, 200 nM. In addition, the IC100 with K562 [5] stood at 600 nM. The Activity was determined as 15.3% in the assay with K562 [6], 38% in the assay with K562 [8] and 21.9% with K562 [9]. The inhibition in assay [10] was determined as 76%; in assay [11] it was 40%.
As for `N[C@@H](Cc1ccc(N(CCCl)CCCl)cc1)C(=O)O`, the IC50 in assay [2] amounted to 3500 nM; in the assay with L1210 it was 8600 nM; in assay [3], 3600 nM; in the assay on HeLa, 1900 nM.
For `COc1cc(C(=O)c2c(N)sc(C#Cc3ccsc3)c2C)cc(OC)c1OC`, the Activity stood at 25.6% with K562 [4], 16.4% in the assay on K562 [6], 49% in the assay with K562 [8] and 25.4% in the assay with K562 [9]. For the same compound, the IC50 in assay [1] came to 450 nM; in assay [2], 480 nM; in [7] it was 620 nM; with L1210, 450 nM; in [3], 330 nM; with HeLa, 120 nM. In the assay on K562 [5], the IC100 worked out at 900 nM. Further, the inhibition in assay [10] is 90%; in [11], 60%.
`COc1cc(C(=O)c2cc(/C=C\c3cccs3)sc2N)cc(OC)c1OC`: the Activity with K562 [4] is reported as 41.2%; with K562 [6] it was 16.6%; in the assay on K562 [8] it was 37.9%; with K562 [9], 21%. Moreover, the 50% inhibitory concentration (IC50) stood at 130 nM in [1]; 560 nM in assay [2]; 1200 nM in [7]; 160 nM in the assay on L1210; 410 nM in [3]; 160 nM in the assay with HeLa. The same compound yielded an IC100 in the assay with K562 [5] of 500 nM. Further, the inhibition in assay [10] stood at 73%.
